Results as given in US20160009693A1, “HERBICIDAL COMPOUNDS” (SYNGENTA LIMITED, priority 2013, published 2016).

Legend:
Format in all cases: in vivo
Conditions in all cases: applied at 1000 g/h, evaluated after 13 days
Setaria faberi (SETFA) [1] = assay: Herbicidal glasshouse test, post-emergence, SETFA
Summary of the method: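 This post-emergence glasshouse herbicide test used potted Setaria faberi. Plants were cultivated for 8 days under controlled conditions (24/16° C. day/night, 14 hours light, 65% humidity) and then treated with an aqueous spray made from an acetone/water (50:50) solution containing 0.5% Tween 20. After 13 days of further growth with twice-daily watering, damage was rated on a five point scale (5=80-100%; 1=0-19%).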

Setaria faberi (SETFA) [2] = assay: Herbicidal glasshouse test, pre-emergence, SETFA
[3] = system: Ipomoea hederacea (IPOHE); assay: Herbicidal glasshouse test, pre-emergence, IPOHE
[4] = system: Alopecurus myosuroides (ALOMY); assay: Herbicidal glasshouse test, pre-emergence, ALOMY
[5] = system: Alopecurus myosuroides (ALOMY); assay: Herbicidal glasshouse test, post-emergence, ALOMY
[6] = system: Amaranthus retoflexus (AMARE); assay: Herbicidal glasshouse test, pre-emergence, AMARE
Summary of the method: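 This pre-emergence glasshouse herbicide test used Amaranthus retoflexus sown in standard soil. After one day of cultivation, an aqueous spray made from the technical ingredient in 50:50 acetone/water with 0.5% Tween 20 was applied. Pots stayed at 24/16° C., 14 hours light, 65% humidity, with twice-daily watering. Damage was rated on a five point scale (1=0-19% up to 5=80-100%).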

Solanum nigrum (SOLNI) [7] = assay: Herbicidal glasshouse test, pre-emergence, SOLNI
Summary of the method: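 This pre-emergence glasshouse herbicide test used Solanum nigrum sown in standard soil. One day after sowing, pots were sprayed with the compound in acetone/water (50:50) with 0.5% Tween 20. They were then grown at 24/16° C., with 14 hours light and 65% humidity, and watered twice daily. Percentage damage was scored after 13 days on a five point scale, where 5=80-100% and 1=0-19%.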

[8] = system: Amaranthus retoflexus (AMARE); assay: Herbicidal glasshouse test, post-emergence, AMARE
Summary of the method: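 This post-emergence glasshouse test used AMARE plants raised in standard soil for 8 days under controlled conditions (24/16° C. day/night, 14 hours light, 65% humidity). Foliage was sprayed with formulated compound in acetone/water (50:50) containing 0.5% Tween 20. Plants were then watered twice daily, and after 13 days percentage damage was rated on a five point scale.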

[9] = system: Echinochloa crus-galli (ECHCG); assay: Herbicidal glasshouse test, pre-emergence, ECHCG
Summary of the method: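 In this pre-emergence glasshouse test, ECHCG seeds sown in pots of standard soil were sprayed one day after sowing with the test material in acetone/water (50:50) containing 0.5% Tween 20. Plants were kept at 24/16° C., 14 hours light, 65% humidity, and watered twice daily. Percentage damage was rated after 13 days on a 1–5 scale.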

[10] = system: Echinochloa crus-galli (ECHCG); assay: Herbicidal glasshouse test, post-emergence, ECHCG
Summary of the method: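 In this post-emergence glasshouse test, barnyard grass (ECHCG) was cultivated for 8 days under controlled conditions (24/16° C. day/night, 14 hours light, 65% humidity). It was then sprayed with an aqueous solution of the technical compound in acetone / water (50:50) with 0.5% Tween 20. Plants were kept under the same conditions and watered twice daily. After 13 days, percentage damage was rated on a five point scale (5=80-100%; 1=0-19%).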

Solanum nigrum (SOLNI) [11] = assay: Herbicidal glasshouse test, post-emergence, SOLNI
[12] = system: Ipomoea hederacea (IPOHE); assay: Herbicidal glasshouse test, post-emergence, IPOHE

Structure (SMILES)	POST Application SETFA, percentage damage (five point scale) (Setaria faberi (SETFA) [1])	PRE Application SETFA, percentage damage (five point scale) (Setaria faberi (SETFA) [2])	PRE Application IPOHE, percentage damage (five point scale) [3]	PRE Application ALOMY, percentage damage (five point scale) [4]	POST Application ALOMY, percentage damage (five point scale) [5]	PRE Application AMARE, percentage damage (five point scale) [6]	PRE Application SOLNI, percentage damage (five point scale) (Solanum nigrum (SOLNI) [7])	POST Application AMARE, percentage damage (five point scale) [8]	PRE Application ECHCG, percentage damage (five point scale) [9]	POST Application ECHCG, percentage damage (five point scale) [10]	POST Application SOLNI, percentage damage (five point scale) (Solanum nigrum (SOLNI) [11])	POST Application IPOHE, percentage damage (five point scale) [12]
Cc1ccccc1-n1c(=O)c(C(=O)Nc2nnnn2C)nn(C)c1=O [Compound 1.018]	5 (5=80-100%)	5 (5=80-100%)	5 (5=80-100%)	5 (5=80-100%)	5 (5=80-100%)	5 (5=80-100%)	5 (5=80-100%)	5 (5=80-100%)	5 (5=80-100%)	5 (5=80-100%)	5 (5=80-100%)	5 (5=80-100%)
C=CCn1nc(C(=O)Nc2nnnn2C)c(=O)n(Cc2cccc(F)c2)c1=O [Compound 1.014]	5 (5=80-100%)	1 (1=0-19%)	5 (5=80-100%)	3 (3=40-59%)	2 (2=20-39%)	5 (5=80-100%)	5 (5=80-100%)	5 (5=80-100%)	5 (5=80-100%)	4 (4=60-79%)	5 (5=80-100%)	5 (5=80-100%)
COc1cc(-n2c(=O)c(C(=O)Nc3nnnn3C)nn(C)c2=O)ccc1F [Compound 1.048]	5 (5=80-100%)	5 (5=80-100%)	5 (5=80-100%)	5 (5=80-100%)	5 (5=80-100%)	5 (5=80-100%)	5 (5=80-100%)	5 (5=80-100%)	5 (5=80-100%)	5 (5=80-100%)	5 (5=80-100%)	5 (5=80-100%)
Cn1nnnc1NC(=O)c1nn(C)c(=O)n(-c2ccc(OC(F)(F)F)cc2)c1=O [Compound 1.039]	5 (5=80-100%)	5 (5=80-100%)	5 (5=80-100%)	5 (5=80-100%)	5 (5=80-100%)	5 (5=80-100%)	5 (5=80-100%)	5 (5=80-100%)	5 (5=80-100%)	5 (5=80-100%)	5 (5=80-100%)	5 (5=80-100%)
CC(C)CCn1c(=O)c(C(=O)Nc2nnnn2C)nn(C)c1=O [Compound 1.087]	5 (5=80-100%)	5 (5=80-100%)	5 (5=80-100%)	5 (5=80-100%)	5 (5=80-100%)	5 (5=80-100%)	5 (5=80-100%)	5 (5=80-100%)	5 (5=80-100%)	5 (5=80-100%)	5 (5=80-100%)	5 (5=80-100%)
Cn1nnnc1NC(=O)c1nn(C)c(=O)n(Cc2cccc(C#N)c2)c1=O [Compound 1.054]	4 (4=60-79%)	4 (4=60-79%)	5 (5=80-100%)	5 (5=80-100%)	5 (5=80-100%)	5 (5=80-100%)	5 (5=80-100%)	5 (5=80-100%)	5 (5=80-100%)	5 (5=80-100%)	5 (5=80-100%)	5 (5=80-100%)
Cn1nnnc1NC(=O)c1nn(C)c(=O)n(-c2ccc(OC(F)(F)F)c(F)c2)c1=O [Compound 1.029]	5 (5=80-100%)	5 (5=80-100%)	5 (5=80-100%)	5 (5=80-100%)	5 (5=80-100%)	5 (5=80-100%)	5 (5=80-100%)	5 (5=80-100%)	5 (5=80-100%)	5 (5=80-100%)	5 (5=80-100%)	5 (5=80-100%)
